In patent US20070117770A1, “Human ribosomal DNA (rDNA) and ribosomal RNA (rRNA) nucleic acids and uses thereof” (Cylene Pharmaceuticals, Inc., priority 2005, published 2007):

Tests used:
Experiment in all cases: Protein kinase inhibition assay
Format in all cases: biochemical
[1] = target: CDK6/cyclinD3(h) (Homo sapiens, UniProt Q00534); conditions: read-out: percent residual activity of CDK6/cyclinD3(h)
Protocol: (§1) Certain compounds were tested for activity in protein kinase inhibition assays. All substrates were dissolved and diluted to working stocks in de-ionized water, apart from histone H1 (10× working stock in 20 mM MOPS pH 7.0), PDKtide (10× working stock in 50 mM Tris pH 7.0) ATF2 (which is typically stored at a 20× working stock in 50 mM Tris pH 7.5, 150 mM NaCl, 0.1 mM EGTA, 0.03% Brij-35, 50% glycerol, 1 mM benzamidine, 0.2 mM PMSF and 0.1% R-mercaptoethanol), KKLNRTLSFAEPG (SEQ ID NO:203) and RRRLSFAEPG (SEQ ID NO:204) (50 mM HEPES pH 7.4) and GGEEEEYFELVKKKK (SEQ ID NO:205) (20 mM MOPS pH 7.0). All kinases were pre-diluted to a 10× working concentration prior to addition into the assay. The composition of the dilution buffer for each kinase is detailed below.
(§2) In a final reaction volume of 25 μl, CDK6/cyclinD3 (h) (5-10 mU) is incubated with 8 mM MOPS pH 7.0, 0.2 mM EDTA, 0.1 mg/ml histone H1, 10 mM MgAcetate and [gamma-33P-ATP] (specific activity approx. 500 cpm/pmol, concentration as required). The reaction is initiated by the addition of the MGATP mix. After incubation for 40 minutes at room temperature, the reaction is stopped by the addition of 5 μl of a 3% phosphoric acid solution. 10 μl of the reaction is then spotted onto a P30 filtermat and washed three times for 5 minutes in 75 mM phosphoric acid and once in methanol prior to drying and scintillation counting.

[2] = target: EphA4(h) (Homo sapiens, UniProt P54764); conditions: read-out: percent residual activity of EphA4(h)
Protocol: as §1
as §2, with “EphA4” for “CDK6/cyclinD3”, “EDTA, 10 mM MnCl2,” for “EDTA,”, “poly(Glu, Tyr) 4:1,” for “histone H1,”, “[y-33P-ATP]” for “[gamma-33P-ATP]”, “MgATP” for “MGATP”, “Filtermat A” for “P30 filtermat”

[3] = target: EphB3(h) (Homo sapiens, UniProt P54753); conditions: read-out: percent residual activity of EphB3(h)
Protocol: as §1
as §2, with “EphB3” for “CDK6/cyclinD3”, “EDTA, 10 mM MnCl2,” for “EDTA,”, “poly (Glu, Tyr) 4:1,” for “histone H1,”, “MgATP” for “MGATP”, “Filtermat A” for “P30 filtermat”

[4] = target: MKK4(m) (Mus musculus, UniProt P47809); conditions: read-out: percent residual activity of MKK4(m)
Protocol: as §1
The reaction is initiated by the addition of the MGATP. After incubation for 40 minutes at room temperature, 5 μl of this incubation mix is used to initiate a JNK1α1 (h) assay, which is exactly as described on page 11 of this book except that ATF2 is replaced with 250 μM peptide.

[5] = target: PKCβI(h) (Homo sapiens, UniProt P05771); conditions: read-out: percent residual activity of PKCβI(h)
Protocol: as §1
In a final reaction volume of […], PKCβI (h) (5-10 mU) is incubated with 20 mM HEPES pH 7.4, 0.03% Triton X-100, 0.1 mM CaCl2, 0.1 mg/ml phosphatidylserine, 10 μg/ml diacylglycerol, 0.1 mg/ml histone H1, 10 mM MgAcetate and [gamma-33P-ATP] (specific activity approx. 500 cpm/pmol, concentration as required). The reaction is initiated by the addition of the MgATP mix. After incubation for 40 minutes at room temperature, the reaction is stopped by the addition of 5 μl of a 3% phosphoric acid solution. […]

[6] = target: Ron(h) (Homo sapiens, UniProt Q04912); conditions: read-out: percent residual activity of Ron(h)
Protocol: as §1
as §2, with “Ron” for “CDK6/cyclinD3”, “250 μM KKSRGDYMTMQIG (SEQ ID NO:210),” for “0.1 mg/ml histone H1,”, “MgATP” for “MGATP”

[7] = target: SAPK4(h) (Homo sapiens, UniProt O15264); conditions: read-out: percent residual activity of SAPK4(h)
Protocol: as §1
In a final reaction volume of 25 μl, SAPK4 (h) (5-10 mU) is incubated with 25 mM Tris pH 7.5, 0.02 mM EGTA, 0.33 mg/ml myelin basic protein, 10 mM MgAcetate and [gamma-33P-ATP] (specific activity approx. 500 cpm/pmol, concentration as required). The reaction is initiated by the addition of the MgATP mix. After incubation for 40 minutes at room temperature, the reaction is stopped by the addition of 5 μl of a 3% phosphoric acid solution. 10 μl of the reaction is then spotted onto a P30 filtermat and washed three times for 5 minutes in 75 mM phosphoric acid and once in methanol prior to drying and scintillation counting.

EphA4(h), sequence (P54764 20-986): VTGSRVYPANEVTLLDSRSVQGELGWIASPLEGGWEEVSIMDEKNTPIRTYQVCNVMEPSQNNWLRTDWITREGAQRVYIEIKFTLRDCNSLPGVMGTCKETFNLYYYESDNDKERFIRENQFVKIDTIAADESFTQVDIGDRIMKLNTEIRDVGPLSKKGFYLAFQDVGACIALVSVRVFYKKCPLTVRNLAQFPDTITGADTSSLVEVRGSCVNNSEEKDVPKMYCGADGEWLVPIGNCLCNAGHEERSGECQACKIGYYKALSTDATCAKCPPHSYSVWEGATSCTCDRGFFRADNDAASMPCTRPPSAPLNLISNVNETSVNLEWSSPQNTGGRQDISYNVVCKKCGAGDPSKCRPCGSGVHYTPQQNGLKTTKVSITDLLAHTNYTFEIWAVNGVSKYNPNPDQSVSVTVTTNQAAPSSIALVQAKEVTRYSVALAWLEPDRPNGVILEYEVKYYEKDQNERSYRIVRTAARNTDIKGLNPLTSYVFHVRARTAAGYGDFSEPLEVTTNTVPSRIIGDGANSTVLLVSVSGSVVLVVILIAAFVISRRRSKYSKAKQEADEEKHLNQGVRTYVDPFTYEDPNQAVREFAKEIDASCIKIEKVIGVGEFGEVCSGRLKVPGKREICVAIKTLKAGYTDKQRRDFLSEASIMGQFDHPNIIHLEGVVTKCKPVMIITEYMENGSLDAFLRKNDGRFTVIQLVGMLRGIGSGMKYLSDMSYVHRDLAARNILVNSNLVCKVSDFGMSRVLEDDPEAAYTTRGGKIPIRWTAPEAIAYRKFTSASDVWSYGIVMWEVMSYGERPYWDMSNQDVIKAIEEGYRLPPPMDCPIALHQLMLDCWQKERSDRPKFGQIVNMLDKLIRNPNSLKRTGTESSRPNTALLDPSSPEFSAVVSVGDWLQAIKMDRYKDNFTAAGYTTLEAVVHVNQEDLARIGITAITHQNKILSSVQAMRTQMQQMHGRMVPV
PKCβI(h), sequence (P05771 whole entry): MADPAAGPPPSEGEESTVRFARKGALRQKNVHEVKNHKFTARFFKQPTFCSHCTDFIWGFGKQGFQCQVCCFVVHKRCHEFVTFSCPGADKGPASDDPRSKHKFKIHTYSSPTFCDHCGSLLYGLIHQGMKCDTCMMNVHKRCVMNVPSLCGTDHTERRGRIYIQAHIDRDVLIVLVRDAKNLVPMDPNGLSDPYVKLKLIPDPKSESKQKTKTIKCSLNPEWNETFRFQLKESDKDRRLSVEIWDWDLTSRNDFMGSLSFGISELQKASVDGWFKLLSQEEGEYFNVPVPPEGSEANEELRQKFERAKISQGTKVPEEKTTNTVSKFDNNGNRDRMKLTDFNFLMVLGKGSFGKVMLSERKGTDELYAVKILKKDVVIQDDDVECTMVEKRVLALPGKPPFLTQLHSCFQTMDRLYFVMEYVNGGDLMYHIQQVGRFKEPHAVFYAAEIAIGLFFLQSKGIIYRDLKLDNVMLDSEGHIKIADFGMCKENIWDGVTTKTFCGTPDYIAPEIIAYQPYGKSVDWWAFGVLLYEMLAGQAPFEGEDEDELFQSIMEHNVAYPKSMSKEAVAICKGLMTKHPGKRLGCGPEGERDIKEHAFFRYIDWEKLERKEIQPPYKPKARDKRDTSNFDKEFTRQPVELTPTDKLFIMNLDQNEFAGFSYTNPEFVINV
Ron(h), sequence (Q04912 25-1400): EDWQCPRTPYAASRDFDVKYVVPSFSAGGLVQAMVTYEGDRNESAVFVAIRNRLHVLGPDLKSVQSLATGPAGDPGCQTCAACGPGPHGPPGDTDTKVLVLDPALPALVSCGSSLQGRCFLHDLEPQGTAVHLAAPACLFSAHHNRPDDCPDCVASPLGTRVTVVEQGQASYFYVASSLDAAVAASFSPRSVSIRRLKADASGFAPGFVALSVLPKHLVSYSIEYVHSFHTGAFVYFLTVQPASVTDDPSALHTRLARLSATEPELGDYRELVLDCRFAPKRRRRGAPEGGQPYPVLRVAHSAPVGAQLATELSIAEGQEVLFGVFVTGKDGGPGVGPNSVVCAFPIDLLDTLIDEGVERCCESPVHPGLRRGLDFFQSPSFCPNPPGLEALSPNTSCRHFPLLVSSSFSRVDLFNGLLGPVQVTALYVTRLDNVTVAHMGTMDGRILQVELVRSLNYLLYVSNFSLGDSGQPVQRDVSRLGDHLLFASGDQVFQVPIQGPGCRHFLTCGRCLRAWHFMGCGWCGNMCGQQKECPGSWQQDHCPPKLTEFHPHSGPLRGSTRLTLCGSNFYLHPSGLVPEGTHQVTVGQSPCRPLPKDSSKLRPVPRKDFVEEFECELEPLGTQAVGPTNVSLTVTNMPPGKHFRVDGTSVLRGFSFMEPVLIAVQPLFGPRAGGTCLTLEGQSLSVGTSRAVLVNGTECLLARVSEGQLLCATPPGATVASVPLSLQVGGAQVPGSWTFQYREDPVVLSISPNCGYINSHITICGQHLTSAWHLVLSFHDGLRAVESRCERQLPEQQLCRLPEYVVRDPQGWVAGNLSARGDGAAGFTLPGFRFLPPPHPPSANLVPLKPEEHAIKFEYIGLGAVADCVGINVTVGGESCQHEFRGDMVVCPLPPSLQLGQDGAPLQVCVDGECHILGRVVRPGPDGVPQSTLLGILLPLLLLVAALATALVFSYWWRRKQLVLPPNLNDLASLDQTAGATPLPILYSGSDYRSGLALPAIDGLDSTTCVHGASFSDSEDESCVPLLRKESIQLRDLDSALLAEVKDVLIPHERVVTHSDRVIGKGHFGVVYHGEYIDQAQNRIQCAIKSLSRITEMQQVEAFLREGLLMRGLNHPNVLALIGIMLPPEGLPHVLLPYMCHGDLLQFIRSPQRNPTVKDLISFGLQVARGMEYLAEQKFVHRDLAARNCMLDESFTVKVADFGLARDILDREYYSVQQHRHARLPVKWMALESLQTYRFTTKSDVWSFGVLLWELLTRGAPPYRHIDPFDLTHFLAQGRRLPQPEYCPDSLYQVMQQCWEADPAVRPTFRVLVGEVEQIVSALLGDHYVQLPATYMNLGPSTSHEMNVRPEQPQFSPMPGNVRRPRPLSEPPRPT
SAPK4(h), sequence (O15264 whole entry): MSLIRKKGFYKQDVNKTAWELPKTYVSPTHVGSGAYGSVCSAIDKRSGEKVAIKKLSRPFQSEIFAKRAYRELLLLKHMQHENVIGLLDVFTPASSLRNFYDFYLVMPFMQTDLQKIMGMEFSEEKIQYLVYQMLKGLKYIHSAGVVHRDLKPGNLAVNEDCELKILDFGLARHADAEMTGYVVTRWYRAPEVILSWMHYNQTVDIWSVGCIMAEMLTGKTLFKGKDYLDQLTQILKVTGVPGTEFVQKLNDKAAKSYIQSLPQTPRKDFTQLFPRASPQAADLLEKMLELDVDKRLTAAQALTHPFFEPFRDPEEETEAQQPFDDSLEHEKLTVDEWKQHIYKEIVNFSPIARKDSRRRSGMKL
EphB3(h), sequence (P54753 34-998): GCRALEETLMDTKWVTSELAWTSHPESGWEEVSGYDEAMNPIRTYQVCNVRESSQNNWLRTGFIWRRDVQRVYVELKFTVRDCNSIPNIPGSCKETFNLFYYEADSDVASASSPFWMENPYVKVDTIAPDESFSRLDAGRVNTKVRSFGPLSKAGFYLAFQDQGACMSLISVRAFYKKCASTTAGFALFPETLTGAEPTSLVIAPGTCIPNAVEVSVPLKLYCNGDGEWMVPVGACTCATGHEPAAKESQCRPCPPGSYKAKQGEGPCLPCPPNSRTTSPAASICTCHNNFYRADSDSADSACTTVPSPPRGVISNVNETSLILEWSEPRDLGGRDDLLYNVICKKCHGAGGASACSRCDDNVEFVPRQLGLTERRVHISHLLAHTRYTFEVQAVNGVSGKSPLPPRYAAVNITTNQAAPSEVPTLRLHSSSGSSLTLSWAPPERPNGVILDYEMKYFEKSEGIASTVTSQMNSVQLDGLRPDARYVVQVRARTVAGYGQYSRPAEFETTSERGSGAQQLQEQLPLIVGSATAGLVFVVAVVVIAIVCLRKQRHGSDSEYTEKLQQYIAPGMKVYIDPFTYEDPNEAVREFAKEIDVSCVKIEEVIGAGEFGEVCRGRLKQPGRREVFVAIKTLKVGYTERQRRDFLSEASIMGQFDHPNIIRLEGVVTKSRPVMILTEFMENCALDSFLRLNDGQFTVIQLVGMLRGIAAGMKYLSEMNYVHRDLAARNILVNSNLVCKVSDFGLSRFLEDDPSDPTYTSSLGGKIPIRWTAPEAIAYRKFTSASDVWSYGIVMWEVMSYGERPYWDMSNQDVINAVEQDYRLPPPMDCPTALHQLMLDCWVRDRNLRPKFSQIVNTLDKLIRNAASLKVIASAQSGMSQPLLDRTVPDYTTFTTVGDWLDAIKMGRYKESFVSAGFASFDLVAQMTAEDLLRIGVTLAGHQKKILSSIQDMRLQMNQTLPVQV
CDK6/cyclinD3(h), sequence (Q00534 whole entry): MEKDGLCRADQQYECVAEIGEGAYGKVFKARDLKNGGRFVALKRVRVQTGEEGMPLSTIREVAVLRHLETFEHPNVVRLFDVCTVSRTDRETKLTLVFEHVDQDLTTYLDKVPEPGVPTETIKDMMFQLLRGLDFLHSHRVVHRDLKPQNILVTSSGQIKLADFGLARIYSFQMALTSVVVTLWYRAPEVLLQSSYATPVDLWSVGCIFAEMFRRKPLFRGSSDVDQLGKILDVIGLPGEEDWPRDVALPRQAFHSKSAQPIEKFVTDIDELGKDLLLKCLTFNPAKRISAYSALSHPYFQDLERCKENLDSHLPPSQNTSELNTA
CDK6/cyclinD3(h), sequence (P30281 whole entry partner): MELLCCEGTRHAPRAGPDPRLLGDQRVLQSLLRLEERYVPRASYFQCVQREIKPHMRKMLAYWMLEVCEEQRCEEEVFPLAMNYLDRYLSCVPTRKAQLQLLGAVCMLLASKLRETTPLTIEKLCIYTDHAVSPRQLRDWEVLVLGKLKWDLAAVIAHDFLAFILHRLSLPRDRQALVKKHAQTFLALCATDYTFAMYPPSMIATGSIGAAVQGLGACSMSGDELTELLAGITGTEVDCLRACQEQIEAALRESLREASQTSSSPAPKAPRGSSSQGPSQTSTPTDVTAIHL

| remaining activity at 2.5 µM [1] [%] | remaining activity at 2.5 µM [2] [%] | remaining activity at 2.5 µM [3] [%] | remaining activity at 2.5 µM [4] [%] | remaining activity at 2.5 µM [5] [%] | remaining activity at 2.5 µM [6] [%] | remaining activity at 2.5 µM [7] [%] | Compound |
| --- | --- | --- | --- | --- | --- | --- | --- |
| 85 | 107 | 111 | 108 | 94 | 71 | 31 | CN1CCCC1CCNC(=O)c1cn2c3c(c(N4CCC(c5cnccn5)C4)c(F)cc3c1=O)Oc1cc3ccccc3cc1-2 (centres unmarked) [Compound A-1] |
| 100 | 134 | 115 | 99 | 97 | 95 | 105 | CC(=O)N1CCN(c2ccc3c(=O)c(C(=O)NCCN4CCCC4)c4n(C)c5ccccc5n4c3n2)CC1 [Compound B-1] |
